ChEMBL document CHEMBL1153434, “Pyridoimidazolones as novel potent inhibitors of v-Raf murine sarcoma viral oncogene homologue B1 (BRAF)” (J Med Chem, 2009)

Key:
[1] = Growth inhibition of human WM266.4 cells expressing BRAF mutant by SRB assay; assay type: functional, cell-based; conditions: WM 266-4
[2] = target: Serine/threonine-protein kinase B-raf (Homo sapiens, UniProt P15056, V600E)
Description: Inhibition of BRAF V600E mutant

[3] = Metabolic stability in mouse liver microsomes assessed as drug metabolism at 10 uM; assay type: ADME, Microsome; conditions: read-out: Activity
[4] = Cmax in plasma of BRAF mutant expressing WM266.4 cells xenografted Crl:CD1-Foxn1nu mouse at 2 mg/kg, iv; assay type: ADME, organism-based; set-up: dose 2 mg/kg, route intravenous
[5] = Cmax in tumor of BRAF mutant expressing WM266.4 cells xenografted Crl:CD1-Foxn1nu mouse at 2 mg/kg, iv; assay type: ADME, organism-based, Neoplasm; set-up: dose 2 mg/kg, route intravenous; conditions: read-out: Cmax_tumor
[6] = AUC in plasma of BRAF mutant expressing WM266.4 cells xenografted Crl:CD1-Foxn1nu mouse at 2 mg/kg, iv; assay type: ADME, organism-based; set-up: dose 2 mg/kg, route intravenous
[7] = AUC in tumor of BRAF mutant expressing WM266.4 cells xenografted Crl:CD1-Foxn1nu mouse at 2 mg/kg, iv; assay type: ADME, organism-based, Neoplasm; set-up: dose 2 mg/kg, route intravenous
[8] = Half life in plasma of BRAF mutant expressing WM266.4 cells xenografted Crl:CD1-Foxn1nu mouse at 2 mg/kg, iv; assay type: ADME, organism-based; set-up: dose 2 mg/kg, route intravenous
[9] = Half life in tumor of BRAF mutant expressing WM266.4 cells xenografted Crl:CD1-Foxn1nu mouse at 2 mg/kg, iv; assay type: ADME, organism-based, Neoplasm; set-up: dose 2 mg/kg, route intravenous
[10] = Clearance in plasma of BRAF mutant expressing WM266.4 cells xenografted Crl:CD1-Foxn1nu mouse at 2 mg/kg, iv; assay type: ADME, organism-based; set-up: dose 2 mg/kg, route intravenous
[11] = Clearance in tumor of BRAF mutant expressing WM266.4 cells xenografted Crl:CD1-Foxn1nu mouse at 2 mg/kg, iv; assay type: ADME, organism-based, Neoplasm; set-up: dose 2 mg/kg, route intravenous; conditions: in vivo
[12] = Cmax in BALB/cAnNCrl mouse plasma at 2 mg/kg, iv; assay type: ADME, organism-based; set-up: dose 2 mg/kg, route intravenous
[13] = Cmax in BALB/cAnNCrl mouse muscle at 2 mg/kg, iv; assay type: ADME, organism-based, Muscle tissue; set-up: dose 2 mg/kg, route intravenous
[14] = AUC in BALB/cAnNCrl mouse plasma at 2 mg/kg, iv; assay type: ADME, organism-based; set-up: dose 2 mg/kg, route intravenous
[15] = AUC in BALB/cAnNCrl mouse muscle at 2 mg/kg, iv; assay type: ADME, organism-based, Muscle tissue; set-up: dose 2 mg/kg, route intravenous
[16] = Half life in BALB/cAnNCrl mouse plasma at 2 mg/kg, iv; assay type: ADME, organism-based; set-up: dose 2 mg/kg, route intravenous
[17] = Half life in BALB/cAnNCrl mouse muscle at 2 mg/kg, iv; assay type: ADME, organism-based, Muscle tissue; set-up: dose 2 mg/kg, route intravenous
[18] = Clearance in BALB/cAnNCrl mouse plasma at 2 mg/kg, iv; assay type: ADME, organism-based; set-up: dose 2 mg/kg, route intravenous
[19] = system: Muscle tissue; experiment: Clearance in BALB/cAnNCrl mouse muscle at 2 mg/kg, iv; assay type: ADME, organism-based; set-up: dose 2 mg/kg, route intravenous; conditions: in vivo

Serine/threonine-protein kinase B-raf, sequence (P15056 2-766 V600E limits assumed): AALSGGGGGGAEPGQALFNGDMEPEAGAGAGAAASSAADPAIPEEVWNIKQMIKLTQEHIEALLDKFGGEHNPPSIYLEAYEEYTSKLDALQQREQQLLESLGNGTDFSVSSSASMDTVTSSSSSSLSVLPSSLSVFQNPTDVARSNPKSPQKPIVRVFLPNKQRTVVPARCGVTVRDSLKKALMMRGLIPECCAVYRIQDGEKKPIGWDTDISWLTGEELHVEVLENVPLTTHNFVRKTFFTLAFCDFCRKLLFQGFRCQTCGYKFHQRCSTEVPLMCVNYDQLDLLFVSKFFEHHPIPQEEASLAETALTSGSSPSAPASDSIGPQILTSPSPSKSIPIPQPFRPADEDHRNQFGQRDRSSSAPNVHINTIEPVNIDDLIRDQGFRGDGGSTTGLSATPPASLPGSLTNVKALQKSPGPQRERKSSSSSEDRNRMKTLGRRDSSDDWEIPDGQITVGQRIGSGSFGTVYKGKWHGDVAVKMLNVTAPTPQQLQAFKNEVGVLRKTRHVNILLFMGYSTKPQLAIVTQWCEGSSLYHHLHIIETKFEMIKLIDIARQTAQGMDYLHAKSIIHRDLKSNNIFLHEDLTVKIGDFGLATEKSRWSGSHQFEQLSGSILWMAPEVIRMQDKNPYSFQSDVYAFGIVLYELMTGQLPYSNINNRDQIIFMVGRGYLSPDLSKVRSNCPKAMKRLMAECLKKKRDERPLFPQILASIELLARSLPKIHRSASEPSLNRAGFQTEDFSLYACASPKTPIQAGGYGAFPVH

Row | Compound | IC50 [2] | IC50 [1] | further results
1 | O=C(Cc1cccc(C(F)(F)F)c1)Nc1ccc(Oc2ccnc3[nH]c(=O)[nH]c23)cc1 | – | 5 µM | –
2 | O=C(Nc1ccc(Oc2ccnc3[nH]c(=O)[nH]c23)cc1)Nc1ccccc1C(F)(F)F | > 100 µM | > 100 µM | –
3 | O=C(Nc1ccc(Oc2ccnc3[nH]c(=O)[nH]c23)cc1)Nc1ccc(C(F)(F)F)cc1 | > 100 µM | > 100 µM | –
4 | O=C(Nc1ccc(Oc2ccnc3[nH]c(=O)[nH]c23)cc1)Nc1cccc(C(F)(F)F)c1 | 0.014 µM | > 100 µM | –
5 | O=C(Nc1ccccc1)Nc1ccc(Oc2ccnc3[nH]c(=O)[nH]c23)cc1 | > 100 µM | > 100 µM | –
6 | O=C(Nc1ccc(Cl)cc1)Nc1ccc(Oc2ccnc3[nH]c(=O)[nH]c23)cc1 | > 100 µM | > 100 µM | –
7 | O=c1[nH]c2nccc(Oc3ccc(NS(=O)(=O)c4ccc(C(F)(F)F)cc4)cc3)c2[nH]1 | > 100 µM | 41 µM | –
8 | O=c1[nH]c2nccc(Oc3ccc(NS(=O)(=O)c4ccc(F)cc4)cc3)c2[nH]1 | > 100 µM | – | –
9 | O=c1[nH]c2nccc(Oc3ccc(NS(=O)(=O)c4cccs4)cc3)c2[nH]1 | 12.2 µM | 15.6 µM | –
10 | Cn1c(=O)[nH]c2nccc(Oc3ccc(NC(=O)Nc4ccc(Cl)c(C(F)(F)F)c4)cc3)c21 | 0.022 µM | 5.3 µM | metabolised at 10 µM [3]: 11%; Cmax [4]: 2450 nM; Cmax [5]: 1150 nM; AUC [6]: 3.26 µM·h; AUC [7]: 4.5 µM·h; half-life [8]: 2.58 h; half-life [9]: 9.72 h; clearance [10]: 0.283 mL/min; CL [11]: 0.006 L/h
11 | O=C(Nc1ccc(Sc2ccnc3[nH]c(=O)[nH]c23)cc1)Nc1ccc(Cl)c(C(F)(F)F)c1 | 0.04 µM | 2.1 µM | –
12 | O=c1[nH]c2nccc(Oc3ccc(NC(=S)Nc4ccc(Cl)c(C(F)(F)F)c4)cc3)c2[nH]1 | 0.085 µM | 10.7 µM | –
13 | O=C(Nc1ccc(Oc2ccnc3[nH]c(=O)[nH]c23)cc1)c1ccccc1 | > 100 µM | > 100 µM | –
14 | O=C(Nc1ccc(Oc2ccnc3[nH]c(=O)[nH]c23)cc1)c1ccc(Cl)c(C(F)(F)F)c1 | 15.9 µM | 8.1 µM | –
15 | O=C(Cc1cccc(OC(F)(F)F)c1)Nc1ccc(Oc2ccnc3[nH]c(=O)[nH]c23)cc1 | – | 23.9 µM | –
16 | Cn1c(=O)[nH]c2c(Oc3ccc(NC(=O)Nc4cccc(C(C)(C)C)c4)cc3)ccnc21 | 0.06 µM | 7 µM | –
17 | O=C(Nc1ccc(Oc2ccnc3[nH]c(=O)[nH]c23)cc1)Nc1cccc(OC(F)(F)F)c1 | 0.021 µM | > 100 µM | –
18 | COc1ccc(C(F)(F)F)cc1NC(=O)Nc1ccc(Oc2ccnc3[nH]c(=O)[nH]c23)cc1 | 0.012 µM | 4.2 µM | –
19 | COc1cc(Cl)c(C(F)(F)F)cc1NC(=O)Nc1ccc(Oc2ccnc3[nH]c(=O)[nH]c23)cc1 | 0.027 µM | 1.6 µM | metabolised at 10 µM [3]: 8%
20 | Cn1c(=O)n(C)c2c(Oc3ccc(NC(=O)Nc4ccc(Cl)c(C(F)(F)F)c4)cc3)ccnc21 | 0.061 µM | 4.8 µM | –
21 | O=C(Nc1ccc(Sc2ccnc3[nH]c(=O)[nH]c23)cc1)Nc1cc(C(F)(F)F)ccc1F | 0.029 µM | 1.28 µM | –
22 | O=c1[nH]c2nccc(Oc3ccc(NS(=O)(=O)c4ccccc4F)cc3)c2[nH]1 | 32.5 µM | 62 µM | –
23 | O=c1[nH]c2nccc(Oc3ccc(NS(=O)(=O)c4ccccc4)cc3)c2[nH]1 | 0.85 µM | 62.7 µM | metabolised at 10 µM [3]: 5%
24 | COc1cccc(CC(=O)Nc2ccc(Oc3ccnc4[nH]c(=O)[nH]c34)cc2)c1 | – | 40 µM | –
25 | O=C(Cc1cc(F)cc(F)c1)Nc1ccc(Oc2ccnc3[nH]c(=O)[nH]c23)cc1 | > 100 µM | 29 µM | –
26 | Cn1c(=O)[nH]c2c(Oc3ccc(NC(=O)Nc4ccc(Cl)c(C(F)(F)F)c4)cc3)ccnc21 | 0.045 µM | 3.7 µM | Cmax [12]: 3230 nM; Cmax [13]: 8080 nM; AUC [14]: 16.4 µM·h; AUC [15]: 9.46 µM·h; half-life [16]: 4.72 h; half-life [17]: 4.35 h; clearance [18]: 0.833 mL/min; CL [19]: 0.009 L/h
27 | Cn1c(=O)[nH]c2c(Oc3ccc(NC(=O)Nc4cc(C(F)(F)F)ccc4F)cc3)ccnc21 | 0.046 µM | 1.94 µM | –
28 | O=C(Nc1ccc(Oc2ccnc3[nH]c(=O)[nH]c23)cc1)c1cccc(C(F)(F)F)c1 | 17.2 µM | 22 µM | –
29 | CNC(=O)c1cc(Oc2ccc(NC(=O)Nc3ccc(Cl)c(C(F)(F)F)c3)cc2)ccn1 [SORAFENIB] | – | 5 µM | –

The next lines start with results.

Row | IC50 [2] | Compound | IC50 [1] | further results
30 | 0.028 µM | O=C(Nc1ccc(Sc2ccnc3[nH]c(=O)[nH]c23)cc1)Nc1cccc(C(F)(F)F)c1 | 1.42 µM | –
31 | 0.6 µM | O=C(Nc1ccc(Oc2ccnc3[nH]c(=O)[nH]c23)cc1)Nc1cc(F)cc(N2CCOCC2)c1 | 41 µM | –
32 | 16.7 µM | O=C(Cc1ccccc1)Nc1ccc(Oc2ccnc3[nH]c(=O)[nH]c23)cc1 | 73 µM | –
33 | > 100 µM | O=c1[nH]c2nccc(Oc3ccc(NS(=O)(=O)c4ccc(Cl)c(C(F)(F)F)c4)cc3)c2[nH]1 | 40.3 µM | –
34 | > 100 µM | O=c1[nH]c2nccc(Oc3ccc(NS(=O)(=O)c4ccc(Cl)cc4)cc3)c2[nH]1 | 39 µM | –
35 | 14 µM | O=C(Nc1ccc(Oc2ccnc3[nH]c(=O)[nH]c23)cc1)c1cccc(Br)c1 | 18 µM | –
36 | > 100 µM | O=C(Nc1ccc(Oc2ccnc3[nH]c(=O)[nH]c23)cc1)c1cccc(OC(F)(F)F)c1 | > 100 µM | –
37 | > 100 µM | O=C(Nc1ccc(Oc2ccnc3[nH]c(=O)[nH]c23)cc1)c1cc(F)cc(N2CCOCC2)c1 | 44 µM | –
38 | 0.052 µM | O=C(Nc1ccc(Oc2ccnc3[nH]c(=O)[nH]c23)cc1)Nc1cc(C(F)(F)F)ccc1F | 3.3 µM | –
39 | 0.163 µM | Cn1c(=O)[nH]c2nccc(Oc3ccc(NC(=O)Nc4cccc(C(C)(C)C)c4)cc3)c21 | 2.82 µM | –
40 | 0.023 µM | O=C(Nc1ccc(Oc2ccnc3[nH]c(=O)[nH]c23)cc1)Nc1ccc(Cl)c(C(F)(F)F)c1 | 4.2 µM | metabolised at 10 µM [3]: 0%; Cmax [4]: 1060 nM; Cmax [5]: 207 nM; AUC [6]: 0.718 µM·h; AUC [7]: 0.468 µM·h; half-life [8]: 0.8 h; half-life [9]: 1.24 h; clearance [10]: 1.95 mL/min; CL [11]: 0.16 L/h
41 | 0.1 µM | O=C(Nc1ccc(Oc2ccnc3[nH]c(=O)[nH]c23)cc1)Nc1cc(Cl)cc(C(F)(F)F)c1 | 12.8 µM | –
42 | 2.84 µM | O=C(Nc1ccc(Oc2ccnc3[nH]c(=O)[nH]c23)cc1)Nc1cccc(F)c1 | 13.9 µM | –
43 | 0.86 µM | O=C(Nc1ccc(Oc2ccnc3[nH]c(=O)[nH]c23)cc1)Nc1cc(C(F)(F)F)ccc1N1CCOCC1 | 5.2 µM | –
44 | 0.305 µM | CCn1c(=O)n(CC)c2c(Oc3ccc(NC(=O)Nc4ccc(Cl)c(C(F)(F)F)c4)cc3)ccnc21 | 22 µM | –
